Test [1] deals with interaction between Pyk2 and cortactin in invadopodia. As to the kind of experiment: Acceptor photobleaching FRET assay. Format: cell-based, human. The note with it: 0.1, 1, 5 μM peptide; mature matrix-degrading invadopodia. As for the experimental part: Acceptor photobleaching experiments were performed as described in Genna et al., 2018 (supra). In brief, cortactin-TagRFP MDA-MB-231 cells were plated on Alexa 405 gelatin in a medium containing Pyk2-PRR or scrambled control peptides at 0.1, 1, and 5 μM concentration, fixed, and immunostained with pY402-Pyk2/Alexa Fluor 488-goat anti-rabbit (donor) and cortactin/Alexa Fluor 555-goat anti-mouse (acceptor). As a control, cells were stained with Tks5/Alexa Fluor 488-goat anti-rabbit (donor) and cortactin/Alexa Fluor 555-goat anti-mouse (acceptor). Co-localization of cortactin with degradation holes in Alexa 405-labeled gelatin was used to identify mature degrading invadopodia. For all FRET experiments, cells were imaged in PBS at room temperature on a laser-scanning inverted confocal microscope (Zeiss LSM780; 60×, NA 1.4, oil objective). A region of interest surrounding invadopodia was bleached using 100% 561-nm laser power (acceptor channel), and images were acquired in both the 488 nm and the 561 nm channels before and after bleaching. FRET efficiency was calculated as the E=1−(donor pre/donor post) in background-subtracted images and was corrected for fluctuations in laser power and donor bleaching in ImageJ.

The next test concerns 4T1 cells. Kind of test: Spontaneous lung metastasis clonogenic assay in 4T1 xenograft mouse model. Format: in vivo, BALB/c female mice. To be noted: 10 mg/kg once a day for eight days, intraperitoneal injection, HIV-TAT fused peptide; versus scrambled control. As for the experimental part:
All experimental procedures were conducted following the Federation of Laboratory Animal Science Association (FELSA) and were approved by the Bar-Ilan University animal use and care committee. Mouse xenograft tumors were generated by injecting 10^6 4T1 cells resuspended in 20% collagen I (BD Biosciences, Franklin Lakes, NJ, USA) in PBS into the lower-left mammary gland of 8-week-old BALB/c female mice. […] 4T1 cells have intrinsic resistance to 6-thioguanine, which enables precise quantification of metastatic cells, even when they are disseminated at sub-microscopic levels at distant organs, upon excision and digestion of selected organs. The clonogenic assay is based on a principle by which one colony represents one metastatic cell. Briefly, spontaneous lung metastasis was measured in BALB/c mice bearing orthotopic 4T1 tumors of equal size (1-1.2 cm in diameter). Lungs were excised and minced and plated in RPMI/10% FBS in the presence of 6-thioguanine to select for tumor cells only. Cells were plated in a 5% CO2 incubator at 37° C. for 14 days to form 4T1 colonies. On day 14 after plating, the medium was removed from dishes, and colonies were fixed in 4% paraformaldehyde for one hour at room temperature. Colonies were then stained in 2% crystal violet solution and thoroughly washed with PBS. Plates were allowed to air dry, and colonies in each plate were quantified. […]

Test [2] concerns MDA-MB-231 cells. Kind of test: 2D single-cell random migration assay. Format: cell-based, human. To be noted: all concentrations; 12 hours; compared to control peptide; data not shown. As for the experimental part: The 2D single-cell random migration assay was performed as previously described in Genna et al. Pyk2 and FAK differentially regulate invadopodia formation and function in breast cancer cells. J Cell Biol 2018; 217: 375-395. In brief, 6-well microtiter plates were coated with 10 μg/ml fibronectin and blocked with 1% denatured BSA. Peptide pre-treated cells were plated at 20,000 cells/well in DMEM/10% FBS containing peptides and allowed to adhere for 12-16 h. Plates were placed in a 37° C. heated chamber, and images were collected using the IncuCyte® Zoom platform (Essen Bioscience, Ann Arbor, MI, USA; 20×, NA 0.60, air objective). Phase images were collected every one hour for a total of 12 h using the IncuCyte® acquisition software. Trajectory plots, accumulated distance (total cell path length), Euclidean distance (the shortest distance between the starting point and endpoint of migration), and velocity were calculated using the chemotaxis and migration tool (ibidi GMBH, Grafelfing, Germany).

For test [3], the system named is MDA-MB-231 cells. As to the kind of experiment: 3D scratch wound assay in Matrigel. Format: cell-based, human. To be noted: 0.1, 1, 5 μM peptide; versus scrambled control. As for the experimental part: The 3D scratch wound assay was performed as described in Meirson et al. Targeting invadopodia-mediated breast cancer metastasis by using ABL kinase inhibitors. Oncotarget 2018; 9: 22158-22183. Briefly, 96 well Image Lock microtiter plates (Essen Bioscience) were coated with 100 μg/ml Matrigel (cat #354234; Corning, New-York, NY, USA). Following overnight incubation at 37° C., MDA-MB-231 cells were plated at a final concentration of 350,000 cells/ml and allowed to adhere for 12-16 h in the presence of Pyk2-PRR or control peptides. Following wounding of the bottom Matrigel-cells layer, a top layer of Matrigel was added to a final concentration of 2 mg/ml and allowed to polymerize for 30 min at 37° C. Pyk2-PRR or control scrambled peptides were then added again in DMEM/10% FBS to a final concentration of 0.1, 1, or 5 μM, with or without the MMP inhibitor GM6001 ([…]). Plates were placed in a 37° C. heated chamber, and images were collected using the IncuCyte® Zoom platform (Essen Bioscience; 20×, NA 0.60, air objective). Phase images were collected every one hour for a total of 12 h using the IncuCyte® acquisition software.

In test [4] the test system is MDA-MB-231 cells. Kind of test: ECM degradation assay. Format: cell-based, human. To be noted: 24 h on fluorescent fibronectin/gelatin matrix; compared to control peptide. Here is the method: The in vitro matrix degradation assay was performed as described in Genna et al., 2018 (supra). Briefly, MatTek dishes were treated with 2.5% gelatin/2.5% sucrose, cross-linked with 0.5% glutaraldehyde, treated with 10 μg/ml of fluorescently labeled fibronectin (Alexa 568; Invitrogen, Thermo Fischer Scientific), and then with 1 mg/ml NaBH4 in PBS. 125,000 cells were plated on the fibronectin/gelatin matrix in Pyk2-PRR or control peptides and allowed to degrade for 24 h. Cells were then fixed in 3.7% paraformaldehyde, and random fields were imaged using an inverted fluorescent microscope (Leica AF6000; 40×, NA 1.3, oil objective). ECM degradation was analyzed by quantifying the average degraded area in pixels per field using ImageJ.

SMILES strings stand for the structures. “Also recorded” adds a separate entry of the source.

Consider `C[C@H](NC(=O)[C@@H](N)[C@@H](C)O)C(=O)N[C@@H](Cc1ccccc1)C(=O)N[C@@H](CCC(N)=O)C(=O)N[C@@H](CCC(=O)O)C(=O)N1CCC[C@H]1C(=O)N1CCC[C@H]1C(=O)N1CCC[C@H]1C(=O)N[C@@H](CCCCN)C(=O)N1CCC[C@H]1C(=O)N[C@@H](CO)C(=O)N[C@@H](CCCNC(=N)N)C(=O)N1CCC[C@H]1C(=O)N[C@@H](CCCCN)C(=O)N[C@@H](Cc1ccc(O)cc1)C(=O)N[C@@H](CCCNC(=N)N)C(=O)N1CCC[C@H]1C(=O)N1CCC[C@H]1C(=O)N1CCC[C@H]1C(=O)O` [Pyk2-PRR2, TAFQEPPPKPSRPKYRPPP], for which the “interaction between Pyk2 and cortactin in invadopodia (FRET)” value in test [1] is recorded as “significantly inhibited”. Also, the “lung metastases (6-thioguanine-resistant colonies)” value in the test with 4T1 cells is listed as “significantly fewer lung metastases; also recorded: can suppress in vivo breast tumor metastasis; also recorded: significantly inhibited lung metastasis”. For the same compound, the “2D motility (accumulated and Euclidean distances, velocity)” value with MDA-MB-231 cells [2] was “reduced 2D motility”. Moreover, in the test on MDA-MB-231 cells [3], the “invasion towards a scratch wound in 3D Matrigel” value is on record as “significantly reduced ability to close the gap”. The “matrix degradation (degradation area)” value in the test with MDA-MB-231 cells [4] is given as “significant decrease”.

(Values after patent US20240368566A1, “PYK2-DERIVED PEPTIDES FOR INHIBITING INVADOPODIA-MEDIATED CANCER METASTASIS” (BAR-ILAN UNIVERSITY, priority 2023, published 2024).)
